In US9340600B2 (Indiana University Research and Technology Corporation, priority 2012, dated 2016):
*1 amine or outer side, *2 acyl side, *3 side chain or, on linkers, in order; H or OH if unused. Where a SMILES comes first, the peptide text is derived from it. Side-chain parts run from the residue outwards. [ ]: non-standard residue; d: D form. The star is where a group is joined. γGlu = O=C(O)[C@H](CCC(=O)[*:2])N[*:1]; Palmitoyl = CCCCCCCCCCCCCCCC(=O)*; Orn = NCCC[C@H](N)C(=O)O; Dab = NCC[C@H](N)C(=O)O; Nva = CCC[C@H](N)C(=O)O; Aib = CC(C)(N)C(=O)O

Assays:
Type in all cases: cell-based
[1] = target: T1, GIP receptor (Homo sapiens, UniProt P48546); test: cAMP induction, firefly luciferase-based reporter assay in HEK293 cells co-transfected with GIP receptor; conditions: EC50 at GIP Receptor, Table 3, analogs of SEQ ID NO: 18 varying at position 3
T1 construct: expressed in transfected cells; host or cells: HEK293
T1 sequence (P48546 22-466): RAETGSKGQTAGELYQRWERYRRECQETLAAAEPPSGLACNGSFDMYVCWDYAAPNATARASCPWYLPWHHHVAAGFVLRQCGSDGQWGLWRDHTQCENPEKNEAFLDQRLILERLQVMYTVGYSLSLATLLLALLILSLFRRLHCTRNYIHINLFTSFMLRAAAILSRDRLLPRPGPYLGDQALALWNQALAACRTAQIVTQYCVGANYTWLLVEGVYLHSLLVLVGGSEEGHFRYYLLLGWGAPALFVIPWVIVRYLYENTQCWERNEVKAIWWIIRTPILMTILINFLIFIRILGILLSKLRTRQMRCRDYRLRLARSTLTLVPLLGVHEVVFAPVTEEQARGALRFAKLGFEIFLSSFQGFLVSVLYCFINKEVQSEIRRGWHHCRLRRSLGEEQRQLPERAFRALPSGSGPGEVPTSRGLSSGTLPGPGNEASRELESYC
Text: (§1) This example describes an exemplary method of testing the biological activity of the peptides of the present disclosures, which method involves assaying cAMP synthesis.

[2] = target: T2, GLP-1 receptor (Homo sapiens, UniProt P43220); test: cAMP induction, firefly luciferase-based reporter assay in HEK293 cells co-transfected with GLP-1 receptor; conditions: EC50 at GLP-1 Receptor, Table 3, analogs of SEQ ID NO: 18 varying at position 3
T2 construct: expressed in transfected cells; host or cells: HEK293
Text: as §1

[3] = target: T3, glucagon receptor (Homo sapiens, UniProt P47871); test: cAMP induction, firefly luciferase-based reporter assay in HEK293 cells co-transfected with glucagon receptor; conditions: EC50 at Glucagon Receptor, Table 3, analogs of SEQ ID NO: 18 varying at position 3
T3 construct: expressed in transfected cells; host or cells: HEK293
Text: as §1

T3 sequence (P47871 26-477): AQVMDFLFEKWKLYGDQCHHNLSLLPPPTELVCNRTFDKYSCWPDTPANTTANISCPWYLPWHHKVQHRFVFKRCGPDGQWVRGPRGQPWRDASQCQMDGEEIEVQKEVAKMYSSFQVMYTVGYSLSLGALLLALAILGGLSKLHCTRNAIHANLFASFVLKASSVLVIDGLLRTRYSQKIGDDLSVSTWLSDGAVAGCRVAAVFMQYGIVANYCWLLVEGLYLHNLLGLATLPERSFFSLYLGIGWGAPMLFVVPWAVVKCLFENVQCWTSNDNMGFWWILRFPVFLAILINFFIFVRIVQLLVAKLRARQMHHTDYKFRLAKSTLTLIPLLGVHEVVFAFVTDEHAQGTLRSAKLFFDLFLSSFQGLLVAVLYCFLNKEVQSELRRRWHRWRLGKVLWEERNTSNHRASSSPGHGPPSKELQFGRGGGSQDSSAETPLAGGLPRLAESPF
T2 sequence (P43220 24-463): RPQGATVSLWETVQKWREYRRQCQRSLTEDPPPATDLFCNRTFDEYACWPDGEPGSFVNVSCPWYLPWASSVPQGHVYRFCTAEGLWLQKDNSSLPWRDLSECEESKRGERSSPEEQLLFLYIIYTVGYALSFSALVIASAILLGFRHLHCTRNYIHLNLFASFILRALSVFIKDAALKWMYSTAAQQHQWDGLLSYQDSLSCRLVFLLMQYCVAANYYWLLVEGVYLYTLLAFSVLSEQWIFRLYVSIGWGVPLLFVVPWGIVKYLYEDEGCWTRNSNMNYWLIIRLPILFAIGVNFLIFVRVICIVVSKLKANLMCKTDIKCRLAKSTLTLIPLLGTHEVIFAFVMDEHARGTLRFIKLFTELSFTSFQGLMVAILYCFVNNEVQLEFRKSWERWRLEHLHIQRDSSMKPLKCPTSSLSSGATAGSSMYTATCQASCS

Row | Structure (SMILES) | EC50 [1] | EC50 [2] | EC50 [3]
1 | CCCCCCCCCCCCCCCC(=O)N[C@@H](CCC(=O)NCCCC[C@H](NC(=O)[C@H](CC(=O)O)NC(=O)[C@H](CO)NC(=O)[C@@H](NC(=O)[C@H](Cc1ccccc1)NC(=O)[C@@H](NC(=O)CNC(=O)[C@H](CCCNC(C)=O)NC(=O)C(C)(C)NC(=O)[C@@H](N)Cc1c[nH]cn1)[C@@H](C)O)[C@@H](C)O)C(=O)N[C@@H](CO)C(=O)N[C@@H](CCCCN)C(=O)N[C@@H](Cc1ccc(O)cc1)C(=O)N[C@@H](CC(C)C)C(=O)N[C@@H](CCC(=O)O)C(=O)N[C@@H](CCC(=O)O)C(=O)N[C@@H](CCCNC(=N)N)C(=O)N[C@@H](C)C(=O)N[C@@H](C)C(=O)N[C@@H](CCC(N)=O)C(=O)N[C@@H](CCC(=O)O)C(=O)N[C@@H](Cc1ccccc1)C(=O)N[C@H](C(=O)N[C@@H](CCC(N)=O)C(=O)N[C@@H](Cc1c[nH]c2ccccc12)C(=O)N[C@@H](CC(C)C)C(=O)N[C@@H](CC(C)C)C(=O)N[C@@H](CCC(=O)O)C(=O)NCC(=O)NCC(=O)N1CCC[C@H]1C(=O)N[C@@H](CO)C(=O)N[C@@H](CO)C(=O)NCC(=O)N[C@@H](C)C(=O)N1CCC[C@H]1C(=O)N1CCC[C@H]1C(=O)N1CCC[C@H]1C(=O)N[C@@H](CO)C(N)=O)C(C)C)C(=O)O [compound 34] (H-H[Aib][Orn](Ac)GTFTSDK([γGlu-Palmitoyl])SKYLEERAAQEFVQWLLEGGPSSGAPPPS-NH2; N-terminus assumed) | 20 pM | 1 pM | 368 pM
2 | CCCCCCCCCCCCCCCC(=O)N[C@@H](CCC(=O)NCCCC[C@H](NC(=O)[C@H](CC(=O)O)NC(=O)[C@H](CO)NC(=O)[C@@H](NC(=O)[C@H](Cc1ccccc1)NC(=O)[C@@H](NC(=O)CNC(=O)[C@H](C)NC(=O)C(C)(C)NC(=O)[C@@H](N)Cc1c[nH]cn1)[C@@H](C)O)[C@@H](C)O)C(=O)N[C@@H](CO)C(=O)N[C@@H](CCCCN)C(=O)N[C@@H](Cc1ccc(O)cc1)C(=O)N[C@@H](CC(C)C)C(=O)N[C@@H](CCC(=O)O)C(=O)N[C@@H](CCC(=O)O)C(=O)N[C@@H](CCCNC(=N)N)C(=O)N[C@@H](C)C(=O)N[C@@H](C)C(=O)N[C@@H](CCC(N)=O)C(=O)N[C@@H](CCC(=O)O)C(=O)N[C@@H](Cc1ccccc1)C(=O)N[C@H](C(=O)N[C@@H](CCC(N)=O)C(=O)N[C@@H](Cc1c[nH]c2ccccc12)C(=O)N[C@@H](CC(C)C)C(=O)N[C@@H](CC(C)C)C(=O)N[C@@H](CCC(=O)O)C(=O)NCC(=O)NCC(=O)N1CCC[C@H]1C(=O)N[C@@H](CO)C(=O)N[C@@H](CO)C(=O)NCC(=O)N[C@@H](C)C(=O)N1CCC[C@H]1C(=O)N1CCC[C@H]1C(=O)N1CCC[C@H]1C(=O)N[C@@H](CO)C(N)=O)C(C)C)C(=O)O [compound 35] (H-H[Aib]AGTFTSDK([γGlu-Palmitoyl])SKYLEERAAQEFVQWLLEGGPSSGAPPPS-NH2; N-terminus assumed) | 6 pM | 2 pM | 73 pM
3 | CCCCCCCCCCCCCCCC(=O)N[C@@H](CCC(=O)NCCCC[C@H](NC(=O)[C@H](CC(=O)O)NC(=O)[C@H](CO)NC(=O)[C@@H](NC(=O)[C@H](Cc1ccccc1)NC(=O)[C@@H](NC(=O)CNC(=O)[C@H](CCNC(C)=O)NC(=O)C(C)(C)NC(=O)[C@@H](N)Cc1c[nH]cn1)[C@@H](C)O)[C@@H](C)O)C(=O)N[C@@H](CO)C(=O)N[C@@H](CCCCN)C(=O)N[C@@H](Cc1ccc(O)cc1)C(=O)N[C@@H](CC(C)C)C(=O)N[C@@H](CCC(=O)O)C(=O)N[C@@H](CCC(=O)O)C(=O)N[C@@H](CCCNC(=N)N)C(=O)N[C@@H](C)C(=O)N[C@@H](C)C(=O)N[C@@H](CCC(N)=O)C(=O)N[C@@H](CCC(=O)O)C(=O)N[C@@H](Cc1ccccc1)C(=O)N[C@H](C(=O)N[C@@H](CCC(N)=O)C(=O)N[C@@H](Cc1c[nH]c2ccccc12)C(=O)N[C@@H](CC(C)C)C(=O)N[C@@H](CC(C)C)C(=O)N[C@@H](CCC(=O)O)C(=O)NCC(=O)NCC(=O)N1CCC[C@H]1C(=O)N[C@@H](CO)C(=O)N[C@@H](CO)C(=O)NCC(=O)N[C@@H](C)C(=O)N1CCC[C@H]1C(=O)N1CCC[C@H]1C(=O)N1CCC[C@H]1C(=O)N[C@@H](CO)C(N)=O)C(C)C)C(=O)O [compound 36] (H-H[Aib][Dab](Ac)GTFTSDK([γGlu-Palmitoyl])SKYLEERAAQEFVQWLLEGGPSSGAPPPS-NH2; N-terminus assumed) | 14 pM | 3 pM | 9 pM
4 | CCCCCCCCCCCCCCCC(=O)N[C@@H](CCC(=O)NCCCC[C@H](NC(=O)[C@H](CC(=O)O)NC(=O)[C@H](CO)NC(=O)[C@@H](NC(=O)[C@H](Cc1ccccc1)NC(=O)[C@@H](NC(=O)CNC(=O)[C@@H](NC(=O)C(C)(C)NC(=O)[C@@H](N)Cc1c[nH]cn1)C(C)C)[C@@H](C)O)[C@@H](C)O)C(=O)N[C@@H](CO)C(=O)N[C@@H](CCCCN)C(=O)N[C@@H](Cc1ccc(O)cc1)C(=O)N[C@@H](CC(C)C)C(=O)N[C@@H](CCC(=O)O)C(=O)N[C@@H](CCC(=O)O)C(=O)N[C@@H](CCCNC(=N)N)C(=O)N[C@@H](C)C(=O)N[C@@H](C)C(=O)N[C@@H](CCC(N)=O)C(=O)N[C@@H](CCC(=O)O)C(=O)N[C@@H](Cc1ccccc1)C(=O)N[C@H](C(=O)N[C@@H](CCC(N)=O)C(=O)N[C@@H](Cc1c[nH]c2ccccc12)C(=O)N[C@@H](CC(C)C)C(=O)N[C@@H](CC(C)C)C(=O)N[C@@H](CCC(=O)O)C(=O)NCC(=O)NCC(=O)N1CCC[C@H]1C(=O)N[C@@H](CO)C(=O)N[C@@H](CO)C(=O)NCC(=O)N[C@@H](C)C(=O)N1CCC[C@H]1C(=O)N1CCC[C@H]1C(=O)N1CCC[C@H]1C(=O)N[C@@H](CO)C(N)=O)C(C)C)C(=O)O [compound 37] (H-H[Aib]VGTFTSDK([γGlu-Palmitoyl])SKYLEERAAQEFVQWLLEGGPSSGAPPPS-NH2; N-terminus assumed) | 2 pM | 2 pM | 29 pM
5 | CCCCCCCCCCCCCCCC(=O)N[C@@H](CCC(=O)NCCCC[C@H](NC(=O)[C@H](CC(=O)O)NC(=O)[C@H](CO)NC(=O)[C@@H](NC(=O)[C@H](Cc1ccccc1)NC(=O)[C@@H](NC(=O)CNC(=O)[C@H](CCC)NC(=O)C(C)(C)NC(=O)[C@@H](N)Cc1c[nH]cn1)[C@@H](C)O)[C@@H](C)O)C(=O)N[C@@H](CO)C(=O)N[C@@H](CCCCN)C(=O)N[C@@H](Cc1ccc(O)cc1)C(=O)N[C@@H](CC(C)C)C(=O)N[C@@H](CCC(=O)O)C(=O)N[C@@H](CCC(=O)O)C(=O)N[C@@H](CCCNC(=N)N)C(=O)N[C@@H](C)C(=O)N[C@@H](C)C(=O)N[C@@H](CCC(N)=O)C(=O)N[C@@H](CCC(=O)O)C(=O)N[C@@H](Cc1ccccc1)C(=O)N[C@H](C(=O)N[C@@H](CCC(N)=O)C(=O)N[C@@H](Cc1c[nH]c2ccccc12)C(=O)N[C@@H](CC(C)C)C(=O)N[C@@H](CC(C)C)C(=O)N[C@@H](CCC(=O)O)C(=O)NCC(=O)NCC(=O)N1CCC[C@H]1C(=O)N[C@@H](CO)C(=O)N[C@@H](CO)C(=O)NCC(=O)N[C@@H](C)C(=O)N1CCC[C@H]1C(=O)N1CCC[C@H]1C(=O)N1CCC[C@H]1C(=O)N[C@@H](CO)C(N)=O)C(C)C)C(=O)O [compound 38] (H-H[Aib][Nva]GTFTSDK([γGlu-Palmitoyl])SKYLEERAAQEFVQWLLEGGPSSGAPPPS-NH2; N-terminus assumed) | 4 pM | 2 pM | 55 pM
6 | CCCCCCCCCCCCCCCC(=O)N[C@@H](CCC(=O)NCCCC[C@H](NC(=O)[C@H](CC(=O)O)NC(=O)[C@H](CO)NC(=O)[C@@H](NC(=O)[C@H](Cc1ccccc1)NC(=O)[C@@H](NC(=O)CNC(=O)[C@H](CCCCNC(C)=O)NC(=O)C(C)(C)NC(=O)[C@@H](N)Cc1c[nH]cn1)[C@@H](C)O)[C@@H](C)O)C(=O)N[C@@H](CO)C(=O)N[C@@H](CCCCN)C(=O)N[C@@H](Cc1ccc(O)cc1)C(=O)N[C@@H](CC(C)C)C(=O)N[C@@H](CCC(=O)O)C(=O)N[C@@H](CCC(=O)O)C(=O)N[C@@H](CCCNC(=N)N)C(=O)N[C@@H](C)C(=O)N[C@@H](C)C(=O)N[C@@H](CCC(N)=O)C(=O)N[C@@H](CCC(=O)O)C(=O)N[C@@H](Cc1ccccc1)C(=O)N[C@H](C(=O)N[C@@H](CCC(N)=O)C(=O)N[C@@H](Cc1c[nH]c2ccccc12)C(=O)N[C@@H](CC(C)C)C(=O)N[C@@H](CC(C)C)C(=O)N[C@@H](CCC(=O)O)C(=O)NCC(=O)NCC(=O)N1CCC[C@H]1C(=O)N[C@@H](CO)C(=O)N[C@@H](CO)C(=O)NCC(=O)N[C@@H](C)C(=O)N1CCC[C@H]1C(=O)N1CCC[C@H]1C(=O)N1CCC[C@H]1C(=O)N[C@@H](CO)C(N)=O)C(C)C)C(=O)O [compound 39] (H-H[Aib]K(Ac)GTFTSDK([γGlu-Palmitoyl])SKYLEERAAQEFVQWLLEGGPSSGAPPPS-NH2; N-terminus assumed) | 336 pM | 10 pM | 543 pM
